Results published in ChEMBL document CHEMBL4177730, “Rational modification of semaxanib and sunitinib for developing a tumor growth inhibitor targeting ATP binding site of tyrosine kinase” (2018).
Calls of active or inactive are those of the source.

What was measured:
Type in all cases: functional, cell-based
HCT-15 = assay: Growth inhibition of human HCT15 cells at 10 uM after 48 hrs by sulforhodamine B assay
BT-549 = assay: Growth inhibition of human BT549 cells at 10 uM after 48 hrs by sulforhodamine B assay
NCI-H460 = assay: Growth inhibition of human NCI-H460 cells at 10 uM after 48 hrs by sulforhodamine B assay
Hs-578T = assay: Growth inhibition of human Hs 578T cells at 10 uM after 48 hrs by sulforhodamine B assay
K562 = assay: Growth inhibition of human K562 cells at 10 uM after 48 hrs by sulforhodamine B assay
EKVX = assay: Growth inhibition of human EKVX cells at 10 uM after 48 hrs by sulforhodamine B assay
SK-MEL-5 = assay: Growth inhibition of human SK-MEL-5 cells at 10 uM after 48 hrs by sulforhodamine B assay
U-251 = assay: Growth inhibition of human U251 cells at 10 uM after 48 hrs by sulforhodamine B assay
PC-3 = assay: Growth inhibition of human PC3 cells at 10 uM after 48 hrs by sulforhodamine B assay
MCF7 = assay: Growth inhibition of human MCF7 cells at 10 uM after 48 hrs by sulforhodamine B assay
UACC-62 = assay: Growth inhibition of human UACC62 cells at 10 uM after 48 hrs by sulforhodamine B assay
786-0 = assay: Growth inhibition of human 786-0 cells at 10 uM after 48 hrs by sulforhodamine B assay
SW-620 = assay: Growth inhibition of human SW620 cells at 10 uM after 48 hrs by sulforhodamine B assay
HT-29 = assay: Growth inhibition of human HT-29 cells at 10 uM after 48 hrs by sulforhodamine B assay
ACHN = assay: Growth inhibition of human ACHN cells at 10 uM after 48 hrs by sulforhodamine B assay
SK-MEL-28 = assay: Growth inhibition of human SK-MEL-28 cells at 10 uM after 48 hrs by sulforhodamine B assay
SR = assay: Growth inhibition of human SR cells at 10 uM after 48 hrs by sulforhodamine B assay
LOX IMVI = assay: Growth inhibition of human LOXIMVI cells at 10 uM after 48 hrs by sulforhodamine B assay
HOP-92 = assay: Growth inhibition of human HOP92 cells at 10 uM after 48 hrs by sulforhodamine B assay
SF-268 = assay: Growth inhibition of human SF268 cells at 10 uM after 48 hrs by sulforhodamine B assay
OVCAR-3 = assay: Growth inhibition of human OVCAR3 cells at 10 uM after 48 hrs by sulforhodamine B assay
OVCAR-5 = assay: Growth inhibition of human OVCAR5 cells at 10 uM after 48 hrs by sulforhodamine B assay
COLO 205 = assay: Growth inhibition of human COLO205 cells at 10 uM after 48 hrs by sulforhodamine B assay
OVCAR-4 = assay: Growth inhibition of human OVCAR4 cells at 10 uM after 48 hrs by sulforhodamine B assay
T47D = assay: Growth inhibition of human T47D cells at 10 uM after 48 hrs by sulforhodamine B assay
RPMI-8226 = assay: Growth inhibition of human RPMI8226 cells at 10 uM after 48 hrs by sulforhodamine B assay
MDA-MB-231 = assay: Growth inhibition of human MDA-MB-231 cells at 10 uM after 48 hrs by sulforhodamine B assay
TK-10 = assay: Growth inhibition of human TK10 cells at 10 uM after 48 hrs by sulforhodamine B assay
IGROV-1 = assay: Growth inhibition of human IGROV1 cells at 10 uM after 48 hrs by sulforhodamine B assay
MDA-MB-435 = assay: Growth inhibition of human MDA-MB-435 cells at 10 uM after 48 hrs by sulforhodamine B assay
SNB-75 = assay: Growth inhibition of human SNB75 cells at 10 uM after 48 hrs by sulforhodamine B assay
SN12C = assay: Growth inhibition of human SN12C cells at 10 uM after 48 hrs by sulforhodamine B assay
NCI-H322M = assay: Growth inhibition of human NCI-H322M cells at 10 uM after 48 hrs by sulforhodamine B assay
A498 = assay: Growth inhibition of human A498 cells at 10 uM after 48 hrs by sulforhodamine B assay
A549 = assay: Growth inhibition of human A549/ATCC cells at 10 uM after 48 hrs by sulforhodamine B assay
NCI-H226 = assay: Growth inhibition of human NCI-H226 cells at 10 uM after 48 hrs by sulforhodamine B assay
CCRF-CEM = assay: Growth inhibition of human CCRF-CEM cells at 10 uM after 48 hrs by sulforhodamine B assay
UO-31 = assay: Growth inhibition of human UO31 cells at 10 uM after 48 hrs by sulforhodamine B assay
CAKI-1 = assay: Growth inhibition of human CAKI-1 cells at 10 uM after 48 hrs by sulforhodamine B assay
MOLT-4 = assay: Growth inhibition of human MOLT4 cells at 10 uM after 48 hrs by sulforhodamine B assay
SK-OV-3 = assay: Growth inhibition of human SKOV3 cells at 10 uM after 48 hrs by sulforhodamine B assay
RXF 393 = assay: Growth inhibition of human RXF393 cells at 10 uM after 48 hrs by sulforhodamine B assay
SF-539 = assay: Growth inhibition of human SF539 cells at 10 uM after 48 hrs by sulforhodamine B assay
SF-295 = assay: Growth inhibition of human SF295 cells at 10 uM after 48 hrs by sulforhodamine B assay
HCC 2998 = assay: Growth inhibition of human HCC2998 cells at 10 uM after 48 hrs by sulforhodamine B assay
HL-60(TB) = assay: Growth inhibition of human HL-60(TB) cells at 10 uM after 48 hrs by sulforhodamine B assay
NCI-H522 = assay: Growth inhibition of human NCI-H522 cells at 10 uM after 48 hrs by sulforhodamine B assay
SNB-19 = assay: Growth inhibition of human SNB19 cells at 10 uM after 48 hrs by sulforhodamine B assay
MDA-MB-468 = assay: Growth inhibition of human MDA-MB-468 cells at 10 uM after 48 hrs by sulforhodamine B assay
KM12 = assay: Growth inhibition of human KM12 cells at 10 uM after 48 hrs by sulforhodamine B assay
SK-MEL-2 = assay: Growth inhibition of human SK-MEL-2 cells at 10 uM after 48 hrs by sulforhodamine B assay
HCT-116 = assay: Growth inhibition of human HCT116 cells at 10 uM after 48 hrs by sulforhodamine B assay
OVCAR-8 = assay: Growth inhibition of human OVCAR8 cells at 10 uM after 48 hrs by sulforhodamine B assay
DU-145 = assay: Growth inhibition of human DU145 cells at 10 uM after 48 hrs by sulforhodamine B assay
M14 = assay: Growth inhibition of human M14 cells at 10 uM after 48 hrs by sulforhodamine B assay
NCI-H23 = assay: Growth inhibition of human NCI-H23 cells at 10 uM after 48 hrs by sulforhodamine B assay
HOP-62 = assay: Growth inhibition of human HOP62 cells at 10 uM after 48 hrs by sulforhodamine B assay
NCI/ADR-RES = assay: Growth inhibition of human NCI-ADR-RES cells at 10 uM after 48 hrs by sulforhodamine B assay
Malme-3M = assay: Growth inhibition of human MALME-3M cells at 10 uM after 48 hrs by sulforhodamine B assay

Measured: growth inhibition (GI)

O=C1/C(=C\c2cccn2Cc2ccc(Cl)cc2)c2ccccc2N1c1c(Cl)cccc1Cl
inactive: all assays above
